In patent US20170027917A1, “PHARMACEUTICAL COMPOSITIONS COMPRISING ANTIBACTERIAL AGENTS” (priority 2014, published 2017):
Where two headings read alike, the source gives them in different places.

What was measured:
Assay in all cases: MIC determination in Muller Hinton Agar (CLSI agar dilution)
Format in all cases: cell-based
Citrobacter sp S123A = tested on: Citrobacter sp S123A
Description: (§1) The antibacterial activity of combinations according to the invention against resistant bacterial strains was investigated. Minimum Inhibitory Concentration (MIC) determination for the combinations according to invention was carried out in Muller Hinton Agar (MHA) (BD, USA) according to Clinical and Laboratory Standards Institute (CLSI) recommendations, (Clinical and Laboratory Standards Institute (CLSI), Performance Standards for Antimicrobial Susceptibility Testing, 20th Informational Supplement, M 100-S20, Volume 30, No. 1, 2010). In short, the test strains were adjusted to deliver about 10^4 CFU per spot with a multipoint inoculator (Applied Quality Services, UK). The plates were pored with MHA containing doubling concentration range of the test combinations according to invention. The plates were inoculated and were incubated at 35° C. for 18 hours.

E. cloacae J137 = conditions: Enterobacter cloacae
Description: as §1

E. coli M50 = conditions: Escherichia coli
Description: as §1

E. coli NCTC 13352 = conditions: Escherichia coli, NCTC13352
Description: as §1

E. coli S206 = conditions: Escherichia coli
Description: as §1

[1] = tested on: K. pneumoniae ATCC 700603; conditions: Klebsiella pneumoniae, ATCC700603
Description: as §1

K. pneumoniae H521 = conditions: Klebsiella pneumoniae
Description: as §1

K. pneumoniae J102 = conditions: Klebsiella pneumoniae
Description: as §1

K. pneumoniae J125 = conditions: Klebsiella pneumoniae
Description: as §1

P. aeruginosa 1405 = conditions: Pseudomonas aeruginosa; P. aeruginosa 1405, Derepressed AmpC; agent alone
Description: as §1

P. aeruginosa 2779 = conditions: Pseudomonas aeruginosa
Description: as §1

| Structure (SMILES) | MIC (Citrobacter sp S123A) [µg/mL] | MIC (E. cloacae J137; J137) [µg/mL] | MIC (E. coli M50; M50) [µg/mL] | MIC (E. coli NCTC 13352) [µg/mL] | MIC (E. coli S206; S206) [µg/mL] | MIC [1] [µg/mL] | MIC (K. pneumoniae H521; H521) [µg/mL] | MIC (K. pneumoniae J102; J102) [µg/mL] | MIC (K. pneumoniae J125; J125) [µg/mL] | MIC (P. aeruginosa 1405) [µg/mL] | MIC (P. aeruginosa 2779; 2779) [µg/mL] | MIC (E. cloacae J137; E. cloacae J137, P99, agent alone, read-out: MIC) [µg/mL] | MIC (E. coli M50; E. coli M50, CMY-2, agent alone, read-out: MIC) [µg/mL] | MIC (E. coli NCTC 13352; E. coli NCTC 13352, TEM-10, agent alone, read-out: MIC) [µg/mL] | MIC (E. coli S206; E. coli S206, Class C, agent alone, read-out: MIC) [µg/mL] | MIC ([1]; K. pneumoniae ATCC 700603, SHV-18, agent alone, read-out: MIC) [µg/mL] | MIC (K. pneumoniae H521; K. pneumoniae H521, KPC, SHV, TEM, agent alone, read-out: MIC) [µg/mL] | MIC (K. pneumoniae J102; K. pneumoniae J102, OMP, SHV, TEM, agent alone, read-out: MIC) [µg/mL] | MIC (K. pneumoniae J125; K. pneumoniae J125, KPC3, SHV, TEM, agent alone, read-out: MIC) [µg/mL] | MIC (P. aeruginosa 2779; P. aeruginosa 2779, AmpC, agent alone, read-out: MIC) [µg/mL] |
| --- | --- | --- | --- | --- | --- | --- | --- | --- | --- | --- | --- | --- | --- | --- | --- | --- | --- | --- | --- | --- |
| Cn1c(N)c(NC(=O)NCCN)c[n+]1CC1=C(C(=O)O)N2C(=O)[C@@H](NC(=O)/C(=N\OC(C)(C)C(=O)[O-])c3nsc(N)n3)[C@H]2SC1 [Ceftolozane] | > 32 | > 32 | > 32 | > 32 | > 32 | 4 | > 32 | > 32 | 32 | 8 | 4 | – | – | – | – | – | – | – | – | – |
| C[C@@H](O)[C@H]1C(=O)N2C(C(=O)O)=C(SCCN=CN)C[C@H]12 [Imipenem] | 4 | – | – | – | – | – | – | – | – | 16 | – | 1 | 0.5 | 0.25 | 0.25 | 0.5 | 32 | 4 | 8 | 2 |
